Assay results published in EP0742015A1, “Prodrugs for beta-lactamase and uses thereof” (Bristol-Myers Squibb Company, priority 1990, dated 1992).

Legend:
[1] = molecular target: β-lactamase from B. cereus (Bacillus cereus, UniProt P04190); test: Release of adriamycin from ADR-ceph in human plasma at 37°C, HPLC; type: biochemical; details: human plasma 37°C, ADR-ceph 572 µg/ml, β-lactamase 0.45 µg/ml
Procedure: The ability of the purified β-lactamase from B. cereus and the lactamase-L6 conjugate to catalyze the release of adriamycin from ADR-ceph was evaluated in human plasma at 37°C.
(§1) Stock solutions of the β-lactamase and lactamase-L6 conjugate were prepared in 0.05 M Hepes buffer (pH7). Aliquots of these stock solutions were added to solutions of ADR-ceph in human plasma thermostated at 37°C. The final concentration of ADR-ceph was 572 µg/ml in the β-lactamase experiment and 896 µg/ml in the L6-lactamase experiment; and the final concentrations of β-lactamase and L6-lactamase conjugate were 0.45 µg/ml and 5.4µg/ml, respectively. Aliquots were withdrawn periodically and were added to two volumes of cold methanol (4°C). The precipitated proteins were removed by centrifugation. The supernatants were analyzed by HPLC using a Waters Associates C18 Radial Pak cartridge (8x100 mm). The column was eluted at 2.0 mL/min with a mobile phase of 60% of 0.05 M ammonium phosphate (pH 6.5) containing 5% acetonitrile and 40% of a mixture of acetonitrile-water (80:20). The peaks were detected by uv at 254 nm. In these assays the respective retention times for adriamycin and ADR-ceph were 3.8 and 7.5 minutes.

[2] = molecular target: B. cereus β-lactamase (Bacillus cereus, UniProt P04190); type: biochemical; details: substrate 100 µg/ml, 0.05 M phosphate buffer, pH 7.0, 25°C
[3] = molecular target: L6-lactamase (B. cereus) conjugate (Bacillus cereus, UniProt P04190); type: biochemical; details: pH 7
[4] = molecular target: Sigma penicillinase from E. cloacae (Enterobacter cloacae, UniProt P05364); test: Specific activity of β-lactamases for cephalosporin substrates, spectrophotometric; type: biochemical; details: substrate 100 µg/ml, 0.05 M phosphate buffer, pH 7.0, 25°C
Sequence of Sigma penicillinase from E. cloacae (P05364 21-381): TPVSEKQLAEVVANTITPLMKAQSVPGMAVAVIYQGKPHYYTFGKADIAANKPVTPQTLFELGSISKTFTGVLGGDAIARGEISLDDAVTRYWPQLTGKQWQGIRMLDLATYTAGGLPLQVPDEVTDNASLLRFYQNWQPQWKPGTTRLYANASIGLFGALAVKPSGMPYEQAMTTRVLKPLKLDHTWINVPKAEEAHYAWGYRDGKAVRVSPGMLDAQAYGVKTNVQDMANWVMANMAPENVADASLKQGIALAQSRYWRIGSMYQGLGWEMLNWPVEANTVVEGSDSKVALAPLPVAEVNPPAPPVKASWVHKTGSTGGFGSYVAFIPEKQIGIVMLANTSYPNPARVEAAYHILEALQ
Procedure: The specific activities of selected β-lactamases for ADR-ceph were examined. These enzymes were B. cereus β-lactamase, lactamase-L6 conjugate, Sigma penicillinase from E. cloacae (Sigma Chemical) and P99 cephalosporinase from E. cloacae. All enzymes were diluted to give protein concentrations of 0.20 ± 0.01 mg/ml (with respect to β-lactamase). Assays were performed spectrophotometrically to 0.05 M phosphate buffer, pH 7.0, at 25°C. Cephaloridine was used as a reference substrate for the enzymes.
P99 cephalosporinase had the highest specific activity for both cephaloridine and ADR-ceph. […] The Sigma "penicillinase" had the lowest activity of all the preparations. […] The differences in activity is probably due to differences in purity between the two preparations.

[5] = molecular target: P99 cephalosporinase from E. cloacae (Enterobacter cloacae, UniProt P05364); type: biochemical; details: pH 7
Sequence of P99 cephalosporinase from E. cloacae (P05364 21-381): as above

[6] = Stability of ADR-ceph in rat plasma at 37°C, HPLC; type: in vitro ADME
Procedure: as §1
(§2) Using the same HPLC assay described in Example 2.2.2 the respective half lives at 37°C of ADR-ceph in rat plasma, buffer at pH 7.4, and human plasma are 8, 20 and ≧ 12 hours (Figure 9).

[7] = Stability of ADR-ceph in buffer at pH 7.4 at 37°C, HPLC; type: physicochemical; details: buffer at pH 7.4, 37°C
Procedure: as §1, §2

[8] = Stability of ADR-ceph in human plasma at 37°C, HPLC; type: in vitro ADME
Procedure: as §1, §2

[9] = molecular target: T1, B. cereus β-lactamase (II) (Bacillus cereus, UniProt P04190); type: biochemical
T1 sequence (P04190 31-257): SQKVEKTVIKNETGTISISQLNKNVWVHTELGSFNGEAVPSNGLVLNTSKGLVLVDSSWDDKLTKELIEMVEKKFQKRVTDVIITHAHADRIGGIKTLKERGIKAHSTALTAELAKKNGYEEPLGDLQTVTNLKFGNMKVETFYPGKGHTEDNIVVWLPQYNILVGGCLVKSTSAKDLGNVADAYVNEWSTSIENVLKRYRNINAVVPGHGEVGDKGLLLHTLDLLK

[10] = molecular target: T2, B. cereus β-lactamase (Bacillus cereus, UniProt P04190); type: biochemical; details: CM 50 µM in PBS at 37° C, 3 µg total protein/ml, partially purified enzyme
T2 construct: purchased Sigma Chem. Co
T2 sequence (P04190 31-257): T1 sequence (P04190 31-257)

[11] = test system: E. coli β-lactamase; test: Hydrolysis of CM by commercially available β-lactamase in PBS at 37° C, HPLC; type: biochemical; details: CM 50 µM in PBS at 37° C, 3 µg total protein/ml, partially purified enzyme
[12] = test system: human lung adenocarcinoma cell line, H2981
[13] = test system: Balb C nu/nu mice; details: mouse, in vivo, iv
[14] = in vitro; details: mouse, plasma
[15] = physchem; details: imdm cell growth medium
[16] = test system: H2981 lung cells; test: In vitro cytotoxicity of CM with L6-β-lactamase conjugate, 3H-thymidine incorporation; details: cells exposed to L6-β-lactamase conjugate 1 hr at 37° C, washed, then CM
[17] = molecular target: T3, BCP II (Bacillus cereus penicillinase) (Bacillus cereus, UniProt P04190); test: Conversion of the cephalosporin-mitomycin prodrug by BCP II in PBS, followed by TLC; type: biochemical; details: 0.3 mg compound in PBS (1 mL), BCP II 10 µL (4.1 mg/mL)
T3 sequence (P04190 31-257): T1 sequence (P04190 31-257)
Procedure: To a greyish blue solution of the title compound (0.3 mg) in PBS (1 mL) was added BCP II (Bacillus cereus penicillinase, 10 µL, protein concentration = 4.1 mg/mL). Immediately the color changed to blue.

## COc1cccc2c1C(=O)c1c(O)c3c(c(O)c1C2=O)C[C@@](O)(C(=O)CO)C[C@@H]3O[C@H]1C[C@H](NC(=O)OCC2=C(C(=O)O)N3C(=O)C(NC(=O)Cc4ccccc4)C3SC2)[C@H](O)[C@H](C)O1 (some centres unmarked) [ADR-ceph, 3-[[(N-adriamycinyl)carbonyloxy]methyl]-7-phenylacetamido-8-oxo-5-thia-1-azabicyclo[4.2.0]oct-2-ene-2-carboxylic acid]
[1]
  hydrolysis of ADR-ceph, release of adriamycin: efficiently hydrolyzed
[2]
  Hydrolysis, µmoles/min/µg protein: 0.016 µmoles/min/µg protein
[3]
  Hydrolysis, µmoles/min/µg protein: 0.021 µmoles/min/µg protein
[4]
  Hydrolysis, µmoles/min/µg protein: 0.0030 µmoles/min/µg protein
[5]
  Hydrolysis, µmoles/min/µg protein: 0.060 µmoles/min/µg protein
[6]
  half-life: 8 h
[7]
  half-life: 20 h
[8]
  half-life: ≥ 12 h

## O=C(Cc1ccccc1)NC1C(=O)N2C(C(=O)O)=C(COC(=O)Nc3ccc(N(CCCl)CCCl)cc3)CSC12 (centres unmarked) [CM]
[9]; CM as substrate
  Km: 25 µM
  Vmax: 250 µmol/min/mg
[10]
  hydrolysis of CM, release of PDM: able to hydrolyze CM to release the nitrogen mustard, PDM
[11]
  hydrolysis of CM, release of PDM: able to hydrolyze CM to release the nitrogen mustard, PDM
[12]
  IC50: ~100 µM
  cytotoxic activity of CM with purified B. cereus β-lactamase (II): enhanced the cytotoxic activity of CM to the level observed for PDM
  enhancement of the activity of CM by β-lactamases: 50-100 fold
[13]
  difference in toxicity on a molar basis, CM versus PDM: > 11 fold
  dose up to which no toxicity was observed: ≥ 900 µg/injection
[14]
  metabolised at 2.5 h, 500 µM: 12%
[15]
  half-life at 500 µM: 0.5 h
[16]
  cytotoxic effect of CM with the antibody-β-lactamase conjugate: enhanced cytotoxic effect

## O=C(Cc1cccs1)N[C@@H]1C(=O)N2C(C(=O)[O-])=C(C[n+]3ccccc3)CS[C@H]12 [Cephaloridine, reference compound]
[2]
  Hydrolysis, µmoles/min/µg protein: 0.038 µmoles/min/µg protein
[3]
  Hydrolysis, µmoles/min/µg protein: 0.045 µmoles/min/µg protein
[4]
  Hydrolysis, µmoles/min/µg protein: 0.026 µmoles/min/µg protein
[5]
  Hydrolysis, µmoles/min/µg protein: 0.30 µmoles/min/µg protein

## O=C(O)CN(CCN(CC(=O)O)CC(=O)O)CC(=O)O [EDTA, reference compound]
[9]
  inhibition of the enzyme activity: completely inhibited

## COC12C(COC(N)=O)C3=C(C(=O)C(C)=C(NCC4=C(C(=O)O)N5C(=O)C(NC(=O)Cc6ccccc6)C5SC4)C3=O)N1CC1NC12 (centres unmarked) [Example 1.2.5, 7-Phenylacetamido-3-(N^7-mitomycin C)-8-oxo-5-thia-1-azabicyclo[4.2.0]oct-2-ene-2-carboxylic acid]
[17]
  conversion to mitomycin C: complete conversion to mitomycin C
